“And” between values parts separate entries of the source, which are not always exact repeats. Identical values can stand only once. The source made the active and inactive calls. How the calls were made is not given here.
What follows are compounds tested on INS-1E Gaussia luciferase insulin secretion, no glucose, luminescence (assay: insulin secretion activators without glucose, dose response, counter-screen for glucose-dependent insulin secretion activators, cell-based, INS-1E, Gaussia luciferase, luminescence, cherry-pick (AID 977606)).
`OC(c1ccccc1)(c1nc(-c2cccc(C(F)(F)F)c2)cs1)C(F)(F)F` (stereo not drawn) was tested, and the AC40 was 10.1 µM. Work on `Cc1cccc(OCC(=O)Nc2ccc(NC(=O)c3ccco3)cc2)c1` yielded an AC40 of 12.4 µM. Compound `CC1CN(Cc2ccccc2)C(=S)NC1=O` (stereo not drawn) has an AC40 of 28.6 µM. `Cc1nc2ccccc2c2oc(C(=O)N3CCCC(C)C3)cc12` (stereo not drawn) gave an AC40 of 16 µM. In the case of `COc1ccc(-c2cccc(C(=O)Nc3ccc(C)cc3)c2)cc1`, the AC40 is reported as 13.6 µM. With `Fc1ccc(-c2ccc(C3[C@@H]4CN(Cc5cccc(F)c5)C[C@H]3N4)cc2)cc1` (stereo partly drawn) the AC40 was 5.18 µM. In the case of `COc1cc2nc(N3CCN(c4cc(C)ccc4C)CC3)nc(N)c2cc1OC`, the AC40 is reported as 8.68 µM. `CN(C)C(=O)COC(=O)c1cccnc1Nc1ccccc1F` gave an AC40 of 29.5 µM. `CC(=O)Nc1sc(N/N=C\c2cccc(Cl)c2)nc1-c1cccs1` showed an AC40 of 4.69 µM. `COc1ccccc1CCn1cnc(-c2ccc(F)cc2)c1CC(C)C` was tested, and the AC40 was 6.41 µM. For `CCc1ccc(-c2c(C)sc(NC(=O)C3CCC3)c2C#N)cc1`, the AC40 was > 35 µM (inactive). With `CN(C)c1ncnc2sc(-c3ccccc3)cc12` the AC40 was 30.3 µM. `CS(=O)(=O)N(Cc1ccc(Cl)cc1)c1ccc(C(=O)NCCC2=CCCCC2)cc1` showed an AC40 of 6.78 µM. Compound `CCCCc1c(-c2ccccc2OC)ncn1C(C)c1ccccc1` (stereo not drawn) has an AC40 of 12.5 µM. `CN(C)CCOc1ccc(-c2c(-c3ccsc3)sc3ccccc23)cc1` was tested, and the AC40 was 5.7 µM. Compound `CN(Cc1ccccc1)C(=S)NC(=O)c1ccc(-c2ccccc2)cc1` has an AC40 of 24 µM. `CNC[C@H](CC1CCCCC1)NC[C@H](Cc1ccccc1)NCCC12CC3CC(CC(C3)C1)C2` gave an AC40 of 4.43 µM. `COc1ccc(-n2c(-c3ccc(Cl)cc3)c[nH]c2=S)cc1` showed an AC40 of 17.1 µM. Compound `NS(=O)(=O)c1ccc(NC(=S)N2CCN(c3ccc(Cl)c(Cl)c3)CC2)cc1` has an AC40 of 3.74 µM. With `CCOC(=O)c1c(C)n(-c2ccc(C)cc2)c2ccc(OCC(O)CN3CCN(C)CC3)cc12` (stereo not drawn) the AC40 was 17.2 µM. `CCCCCCc1cc2cc(C(=O)Nc3cccc(OC)c3)c(=O)oc2cc1O` showed an AC40 of 13.4 µM. In the case of `O=C(Nc1ccc2ccccc2c1)c1cccc2ccccc12`, the AC40 is reported as 3.25 µM. For `O=c1[nH][nH]c2c1C(c1ccc(Cl)c(Cl)c1)OC(CCc1ccccc1)C2` (stereo not drawn), the AC40 was 19.2 µM. `C[C@@H](NC(=O)C[C@@H]1C[C@@H]2c3cc(NC(=O)Nc4ccccc4F)ccc3O[C@@H]2[C@@H](CO)O1)c1ccccc1` gave an AC40 of 34.3 µM. `COc1ccc(S(=O)(=O)Nc2ccccc2OC)cc1N=Nc1c(O)[nH]c(=S)[nH]c1=O` gave an AC40 of 12.6 µM. `OC[C@@H]1[C@@H](c2ccc(C#CC3CCCC3)cc2)[C@@H]2CN(CCC(F)(F)F)CCCCN12` gave an AC40 of 8.18 µM. `O=C(Nc1ccc(SC(F)F)cc1)c1cccc2nc3ccccc3nc12` gave an AC40 of 10.2 µM. With `COC(=O)C1=C(C)N(Cc2ccc(C(F)(F)F)cc2)C(=NCC2CC2)NC1c1ccccc1` (stereo not drawn) the AC40 was 9.63 µM. In the case of `CCCCCc1cc(=O)oc2c(C(CCN3CCCC(C)C3)c3ccc(OC)cc3)c(OC)cc(OC)c12` (stereo not drawn), the AC40 is reported as 8.58 µM. With `COc1ccc(S(=O)(=O)N2CCc3ccccc32)cc1C(=O)Nc1cccnc1` the AC40 was 16.3 µM. In the case of `COc1ccc2nc3ccccc3nc2c1NC(=O)c1ccc(Cl)cc1Cl`, the AC40 is reported as 5.1 µM. Work on `Cc1ccc(-n2ncc3c(=O)n(CC(=O)Nc4cccc(Cl)c4)cnc32)cc1C` yielded an AC40 of 6.76 µM. With `Cc1cccc(-c2ccc(C3[C@@H]4CN(Cc5cccc(F)c5)C[C@H]3N4)cc2)c1` (stereo partly drawn) the AC40 was 4.33 µM and 2.3 µM. `COc1ccc(CNCC(O)COc2ccc(C(C)(C)c3ccccc3)cc2)cc1` (stereo not drawn) gave an AC40 of 6.24 µM. For `OC(c1ccccc1)(c1ccccc1)C1CCN(CCCOc2ccc3c(c2)CCCC3)CC1`, the AC40 was 3.37 µM. For `Cc1cccc(-n2c(C)c(C)c3c(N)ncnc32)c1`, the AC40 was > 35 µM (inactive). `C=CCNc1nc(NCc2ccco2)nc(OCC)n1` was tested, and the AC40 was > 35 µM (inactive). Work on `COc1ccc(S(=O)(=O)N2CCc3ccccc32)cc1C(=O)Nc1ccc(C(N)=O)cc1` yielded an AC40 of 6.44 µM. Work on `COc1cc(CN2CCc3ccccc3C2)ccc1O` yielded an AC40 of 13.6 µM. `CN1CCN(C2Cc3ccccc3Sc3cc(C(F)(F)F)ccc32)CC1` (stereo not drawn) gave an AC40 of 7.2 µM. With `Cc1cccc(Cn2ccc(-c3ccc(Cl)cc3)c(C#N)c2=O)c1` the AC40 was 3.46 µM. For `Cc1ccc(OCC(=O)NC(=S)Nc2cccc(NC(=O)c3ccccc3)c2)cc1`, the AC40 was 8.85 µM. Work on `Cc1[nH]c2ccc(OC(F)(F)F)cc2c1CCNCc1ccc(Cl)cc1` yielded an AC40 of 5.89 µM. In the case of `Cc1ccc(NC(=O)c2cc(-c3ccccc3O)n[nH]2)cc1C`, the AC40 is reported as > 35 µM (inactive). Work on `CCCCc1ccc(NC(=O)COc2ccc(C(=O)Nc3ccccc3OCC)cc2)cc1` yielded an AC40 of 1.3 µM. For `CN(C)c1nc(=NCc2cccs2)ss1`, the AC40 was 1.19 µM. Compound `NC1=NC[C@H](c2ccccc2)N1CCCCC1CCCCC1` has an AC40 of 17.4 µM. `O=C(Nc1ccccc1)c1nnsc1S(=O)(=O)c1ccc(Cl)cc1` was tested, and the AC40 was 0.403 µM. With `CCNC(=O)NC(=O)C(C)OC(=O)c1oc2ccccc2c1CSC1CCCCC1` (stereo not drawn) the AC40 was 2.22 µM. `COc1cccc(CN2C[C@@H]3N[C@H](C2)C3c2ccc(-c3ccccc3OC)cc2)c1` (stereo partly drawn) gave an AC40 of 7.67 µM. In the case of `CCOC(=O)c1c(NC(=O)c2ccoc2C)sc(C(=O)N(C)C)c1C`, the AC40 is reported as > 35 µM (inactive). With `COC(=O)c1sccc1NC(=O)COc1ccc(Cl)cc1Cl` the AC40 was 6.02 µM. Work on `CNc1nc(-c2ccccc2)[n+](-c2ccc(C)cc2)s1` yielded an AC40 of 0.858 µM. For `Cc1ccccc1S(=O)(=O)N1CC(=O)N2[C@@H](CO)[C@H](c3ccc(C#CCC4CCCC4)cc3)[C@@H]2C1`, the AC40 was 22.6 µM. With `CN1CCN(CC(O)COC(c2ccc(Cl)cc2)c2ccc(Cl)cc2)CC1` (stereo not drawn) the AC40 was 13.3 µM. `N#Cc1nccnc1S(=O)(=O)c1cccs1` showed an AC40 of 0.355 µM. `CCOc1cccc(-c2csc(C3COc4ccccc4O3)n2)c1` (stereo not drawn) was tested, and the AC40 was 5.47 µM. `Cc1cc(Nc2ccc(Cl)cc2)nc(NCc2ccccc2)n1` was tested, and the AC40 was 6.67 µM. Work on `COc1ccc2c(c1)C(=NNC(=O)c1ccccn1)c1cc(OC)ccc1-2` yielded an AC40 of 2.66 µM. For `O=c1c2ccc(F)cc2sn1-c1ccccc1`, the AC40 was 1.45 µM. For `COc1ccc2c(c1)CCc1c(C(=O)Nc3cc(C)n(Cc4ccc(Cl)cc4)n3)noc1-2`, the AC40 was 1.86 µM. For `Cc1ccc(-c2n[nH]c(=S)n2/N=C/c2c(C)nn(-c3ccccc3)c2C)cc1`, the AC40 was 6.5 µM. Compound `CCOC(=O)CN1C(=O)[C@]2(OCCC=C[C@H]2C)c2ccccc21` has an AC40 of 13 µM. `O=C(Nc1cccc(Cl)c1)Nc1nnc(CSCCOc2ccc(Cl)cc2)s1` showed an AC40 of 3.41 µM. `O=C1CCc2cc(S(=O)(=O)N3CCN(c4ccc(F)cc4)CC3)cc3c2N1CC3` was tested, and the AC40 was > 35 µM (inactive). For `O=C(Cn1cnc2c(OCc3ccccc3)ncnc21)NCc1ccccn1`, the AC40 was 31.1 µM. `O=c1c2ccccc2sn1-c1ccccc1` showed an AC40 of 1.79 µM. Compound `CC(C)CC#Cc1ccc2c(c1)O[C@@H](CN(C)Cc1cccc(F)c1)[C@H](C)CN([C@@H](C)CO)S2(=O)=O` has an AC40 of 12.7 µM. `Cc1cc(NC(=O)c2ccccc2F)n(-c2nc3ccccc3[nH]2)n1` was tested, and the AC40 was 4.6 µM. In the case of `COc1ccc(CCNC(=O)C(=O)NN=C2CCCCCCC2)cc1OC`, the AC40 is reported as 21.7 µM. In the case of `COc1ccc(CC(N)c2csc(NC(=O)Nc3ccc(C(C)C)cc3)n2)cc1` (stereo not drawn), the AC40 is reported as 3.58 µM. `O=c1c(C=Nc2ccc(Oc3ccccc3)cc2)c[nH]n1-c1cccc(Cl)n1` was tested, and the AC40 was 4.28 µM. Compound `C=CCOc1ccc(-c2nc3c(c(=O)[nH]c(=O)n3CCCC)n2C)cc1Br` has an AC40 of 10.1 µM. Work on `CCOC(=O)Nc1cccc(OCC(=O)Nc2ccc3c(c2)CCC3)c1` yielded an AC40 of 8.25 µM. `OC(CNCCc1ccc(C(F)(F)F)cc1)COC(c1ccccc1)c1ccccc1` (stereo not drawn) was tested, and the AC40 was 4.72 µM. With `Clc1ccc(-c2ccnc(Oc3ccc4ccccc4c3)n2)cc1` the AC40 was 7.79 µM. `CCN(Cc1ccccc1)S(=O)(=O)c1ccc(C(=O)N(CCCN(C)C)c2nc3cc(C)cc(C)c3s2)cc1` gave an AC40 of 3.71 µM. With `Cc1ccc(-c2ccc(C3[C@@H]4CN(Cc5cccc(F)c5)C[C@H]3N4)cc2)cc1` (stereo partly drawn) the AC40 was 2.14 µM.

— PubChem BioAssay AID977606 (Broad Institute, 2014)
